The results in this text go back to patent US20230292743A1, “Method for increasing the lifespan and motility of animal sperm using an inhibitor of Slo3 potassium channel” (IMV TECHNOLOGIES, priority 2017, published 2023).

Assay [1] relates to mouse sperm. Description: Mouse sperm motility by CASA analysis (VCL) after 12 h capacitation. The note with it: 0.2 μM clofilium, 12 h capacitation in M16-BSA medium at 37° C., vs control. It is filed as cell-based. Here is the method: 3. The viability of mouse sperm was determined by the measurement of the sperm motility. The motility analysis was performed using Computer Assisted Semen Analysis (CASA analysis). The CASA analysis was always performed in the examples using a CEROS™, Hamilton Thorne Bioscience, USA. VCL was thus measured. As known to the skilled person, VCL (for Curvilinear Velocity) is the average velocity of the sperm head through its real path. For this analysis, samples were diluted at 0.1 10^6/mL. The diluted sample was incubated for 12 hours at 37° C. in a capacitation medium of M16-BSA medium, with or without 0.2 μM clofilium. For the CASA measurement, 10 μL of the sample were placed on a 2X-CEL Slides, […], Leja Products B.V.,Netherlands, placed on the heating stage (37° C.) of the CEROS ™. A total of 10 automatically selected fields were analyzed.

The subject of assay [2] is bovine sperm. In words: Bovine sperm motility by CASA analysis (VCL, total motility) after 24 h in capacitation medium. In kind it is cell-based. The note with it: 24 h in capacitation medium at 37° C., vs control. Here is the method: For motility, sperm were incubated with 0.2, 0.5, 1 and 5 μM clofilium diluted in the capacitation medium for 24 hours at 37° C. under saturated humidity. Sperm motility was measured using Computer Assisted Semen Analysis (CASA analysis). The CASA analysis was performed using a CEROS™, Hamilton Thorne Bioscience, USA. VCL (curvilinear velocity) was then measured. 2. The viability of the capacitated sperm was determined by the measurement of the sperm motility. The motility analysis was carried out as in Example 1.3. The first results are shown in FIGS. 6A and 6B, which illustrates the motility (in terms of VCL, in μm/s), i.e. the sperm velocity, sperm being incubated 24 h in a capacitation medium prior CASA, for each of the solutions tested: control (“[0 μM]”), 0.2 μM clofilium (“[0.2 μM]”), 0.5 μM clofilium (“[0.5 μM]” or “[0.5]”), 1 μM clofilium (“[1 μM]” or “[1]”) and 5 μM clofilium (“[5 μM]” or “[5]”) (FIG. 6A) and which illustrates the total motility (%), for each of the solutions tested “[0μM ]”, “[0.2 μM]” (or “[0.2]”), “[0.5 μM ]” (or “[0.5]”), “[1 μM ]” (or “[1]”) and “[5 μM ]” (or “[5]”) (FIG. 6B). As known to the skilled person, the “total motility”indicates the overall percentage of sperm that are moving in any direction (VAP>1μm/s).

For `CCCCCCC[N+](CC)(CC)CCCCc1ccc(Cl)cc1` [clofilium], the “motility of sperm (in terms of VCL)” value in assay [1] is “higher velocity than the “control””. Besides, the “motility (in terms of VCL), sperm velocity” value in assay [2] (0.2 μM clofilium), in assay [2] (0.5 μM clofilium) and in assay [2] (1 μM clofilium) was “higher velocity than the non-treated” throughout.
